# Patent publication US10633366B2, “Antibacterial compounds” (AZIENDE CHIMICHE RIUNITE ANGELINI FRANCESCO A.C.R.A.F. …, priority 2016, dated 2020)
# Like-named read-outs stand apart in the source and are kept apart here.
# What was measured:
# Assay in all cases: biochemical
# E. coli DNA gyrase = E. coli DNA gyrase (Escherichia coli, UniProt P0AES4+P0AES6); conditions: for IC50: IC50 DNA gyrase; for inhibition at 50 µM: read-out: % inhibition DNA gyrase
# E. coli Topoisomerase IV = E. coli Topoisomerase IV (Escherichia coli, UniProt P0AFI2+P20083); conditions: for IC50: IC50 Topo IV; for inhibition at 50 µM: read-out: % inhibition Topo IV
# S. aureus DNA gyrase = S. aureus DNA gyrase (Staphylococcus aureus, UniProt P0A0K8+P20831); conditions: for IC50: IC50 DNA gyrase; for inhibition at 50 µM: read-out: % inhibition DNA gyrase
# [1] = target: S. aureus Topoisomerase IV (Staphylococcus aureus, UniProt P0C1S7+P0C1U9); conditions: for inhibition at 50 µM: read-out: % inhibition Topo IV
# [2] = S. aureus, compound conc. 50 μM, percent of inhibition versus positive control, n/a = not active
SMILES,IC50 (E. coli DNA gyrase),inhibition at 50 µM (E. coli DNA gyrase),IC50 (E. coli Topoisomerase IV),inhibition at 50 µM (E. coli Topoisomerase IV),IC50 (S. aureus DNA gyrase),inhibition at 50 µM (S. aureus DNA gyrase),IC50 ([1]; IC50 Topo IV),"inhibition at 50 µM [1, 2]","IC50 ([1]; S. aureus, Table 4, eight half-log concentrations ranging from 0.1 to 300 μM, read-out: IC50 Topo IV)",inhibition at 50 µM [1]
"O=c1oc2ccc(F)cc2c2[nH]c(CN[C@H]3CC[C@H](n4c(=O)ccc5ccc(F)cc54)CC3)cc12 [Compound 216, 8-fluoro-2-({[trans-4-(7-fluoro-2-oxoquinolin-1(2H)-yl)cyclohexyl]amino}methyl)[1]benzopyrano[4,3-b]pyrrol-4(1H)-one]",130 nM,100%,250 nM,100%,310 nM,100%,290 nM,100%,,
"COc1cnc2c(c1)N([C@H]1CC[C@H](NCc3cc4c(=O)oc5ccc(F)cc5c4[nH]3)CC1)C(=O)CO2 [Compound 302, 8-fluoro-2-({[trans-4-(7-methoxy-2-oxo-2,3-dihydro-1H-pyrido[2,3-b][1,4]oxazin-1-yl)cyclohexyl]amino}methyl)[1]benzopyrano[4,3-b]pyrrol-4(1H)-one]",590 nM,,120 nM,,580 nM,,,,3260 nM,
"COc1cnc2ncc(=O)n([C@H]3CC[C@H](NCc4cc5c(=O)oc6ccc(F)cc6c5[nH]4)CC3)c2c1 [Compound 212, 8-fluoro-2-({[trans-4-(7-methoxy-2-oxopyrido[2,3-b]pyrazin-1(2H)-yl)cyclohexyl]amino}methyl)[1]benzopyrano[4,3-b]pyrrol-4(1H)-one]",100 nM,100%,170 nM,100%,140 nM,100%,70 nM,100%,,
"O=c1oc2ccc(F)cc2c2[nH]c(CN[C@H]3CC[C@H](n4c(=O)ccc5ncc(F)cc54)CC3)cc12 [Compound 207, 8-fluoro-2-({[trans-4-(7-fluoro-2-oxo-1,5-naphthyridin-1(2H)-yl)cyclohexyl]amino}methyl)[1]benzopyrano[4,3-b]pyrrol-4(1H)-one]",< 100 nM,100%,< 100 nM,100%,< 100 nM,100%,< 100 nM,100%,,
"COc1cnc2ccc(=O)n([C@H]3CC[C@@H](NCc4cc5c(=O)oc6ccc(F)cc6c5[nH]4)CC3)c2c1 [Compound 205, 8-fluoro-2-({[cis-4-(7-methoxy-2-oxo-1,5-naphthyridin-1(2H)-yl)cyclohexyl]amino}methyl)[1]benzopyrano[4,3-b]pyrrol-4(1H)-one]",100 nM,100%,310 nM,100%,170 nM,100%,100 nM,100%,,
"O=c1nc(NCC(O)CN2CCN(c3nccc4cc[n+]([O-])cc34)CC2)c2cc(F)ccc2o1 (centres unmarked) [Compound 164, 8-(4-(3-((6-fluoro-2-oxo-2H-benzo[e][1,3]oxazin-4-yl)amino)-2-hydroxypropyl)piperazin-1-yl)-2,7-naphthyridine 2-oxide]",3770 nM,100%,1780 nM,100%,1460 nM,100%,700 nM,,,100%
"NC(=O)[C@]1(NCc2cc3c(=O)oc4ccc(F)cc4c3[nH]2)CC[C@H](N2C(=O)COc3ncc(F)cc32)CC1 [Compound 217, Trans-1-{[(8-fluoro-4-oxo-1,4-dihydro[1]benzopyrano[4,3-b]pyrrol-2-yl)methyl]amino}-4-(7-fluoro-2-oxo-2,3-dihydro-1H-pyrido[2,3-b][1,4]oxazin-1-yl)cyclohexane-1-carboxamide]",1450 nM,82%,690 nM,50%,2150 nM,100%,2720 nM,100%,,
"O=C1COc2ncc(F)cc2N1C1CCN(CC(O)CNc2cc(=O)oc3ccc(F)cc23)CC1 (centres unmarked) [Compound 303, 7-fluoro-1-(1-{3-[(6-fluoro-2-oxo-2H-1-benzopyran-4-yl)amino]-2-hydroxypropyl}piperidin-4-yl)-1H-pyrido[2,3-b][1,4]oxazin-2(3H)-one]",2670 nM,,620 nM,,9920 nM,,> 100000 nM,,,
